Experimental data as given in ChEMBL document CHEMBL4507294, “Data for DCP probe MSD-CYP11B2” (2021).

Experiments:
[1] = molecular target: Phosphodiesterase 3 (Homo sapiens) (UniProt Q14432+Q13370); experiment: Inhibition of Phosphodiesterase PDE3 at compound concentration of 10.0 uM in the Eurofins-Panlabs enzyme assay (Eurofins_assay_152000); type: protein assay; set-up: substrate with concentration 1.01 uM [3H] cAMP + cAMP, incubation time 20 min, incubation temperature 25 C; details: Compound concentration 10.0 uM
[2] = molecular target: T1, Alpha-2B adrenergic receptor (Homo sapiens, UniProt P18089); experiment: Inhibition of Adrenergic alpha2B at compound concentration of 10.0 uM in the Eurofins-Panlabs radioligand binding assay (Eurofins_assay_203710); set-up: ligand concentration 2.5 nM, non-specific ligand with concentration 10 uM Prazosin, incubation time 60 min, incubation temperature 25 C
T1 sequence (P18089 whole entry): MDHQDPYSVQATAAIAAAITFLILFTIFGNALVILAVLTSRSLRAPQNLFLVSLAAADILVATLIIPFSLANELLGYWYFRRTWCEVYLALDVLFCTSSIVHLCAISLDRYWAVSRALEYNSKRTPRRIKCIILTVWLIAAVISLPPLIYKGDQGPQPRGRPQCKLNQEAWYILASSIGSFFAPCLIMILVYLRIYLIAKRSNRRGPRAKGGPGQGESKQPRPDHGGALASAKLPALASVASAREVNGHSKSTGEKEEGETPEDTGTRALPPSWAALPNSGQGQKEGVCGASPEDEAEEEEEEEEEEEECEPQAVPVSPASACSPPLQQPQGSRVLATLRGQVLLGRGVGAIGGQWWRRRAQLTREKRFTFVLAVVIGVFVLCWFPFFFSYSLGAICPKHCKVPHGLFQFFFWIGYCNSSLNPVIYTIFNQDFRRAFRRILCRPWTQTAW

[3] = molecular target: Peroxisome proliferator-activated receptor gamma (Homo sapiens) (UniProt P37231); experiment: PPARgamma Eurofins-Panlabs radioligand binding assay; set-up: ligand concentration 5 nM, non-specific ligand with concentration 0.5 µM L-797773, incubation time 18 h, incubation temperature 15 °C; details: Compound concentration 10.0 uM
Sequence of Peroxisome proliferator-activated receptor gamma (Homo sapiens) (P37231 whole entry): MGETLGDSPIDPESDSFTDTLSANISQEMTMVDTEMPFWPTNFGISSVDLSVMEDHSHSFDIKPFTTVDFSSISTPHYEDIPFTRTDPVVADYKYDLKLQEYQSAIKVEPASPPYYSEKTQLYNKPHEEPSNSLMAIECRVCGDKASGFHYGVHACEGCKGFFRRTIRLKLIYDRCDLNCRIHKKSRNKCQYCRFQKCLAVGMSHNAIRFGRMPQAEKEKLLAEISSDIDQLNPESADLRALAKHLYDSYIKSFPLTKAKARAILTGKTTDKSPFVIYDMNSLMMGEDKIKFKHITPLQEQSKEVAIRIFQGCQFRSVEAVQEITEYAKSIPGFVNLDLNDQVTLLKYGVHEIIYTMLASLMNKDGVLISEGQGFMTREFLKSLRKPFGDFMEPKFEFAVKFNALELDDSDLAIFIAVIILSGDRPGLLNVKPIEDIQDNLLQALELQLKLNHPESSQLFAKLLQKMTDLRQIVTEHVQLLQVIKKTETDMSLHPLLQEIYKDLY

[4] = molecular target: Alpha-1D adrenergic receptor (Homo sapiens) (UniProt P25100); details: Compound concentration 10.0 uM
Sequence of Alpha-1D adrenergic receptor (Homo sapiens) (P25100 whole entry): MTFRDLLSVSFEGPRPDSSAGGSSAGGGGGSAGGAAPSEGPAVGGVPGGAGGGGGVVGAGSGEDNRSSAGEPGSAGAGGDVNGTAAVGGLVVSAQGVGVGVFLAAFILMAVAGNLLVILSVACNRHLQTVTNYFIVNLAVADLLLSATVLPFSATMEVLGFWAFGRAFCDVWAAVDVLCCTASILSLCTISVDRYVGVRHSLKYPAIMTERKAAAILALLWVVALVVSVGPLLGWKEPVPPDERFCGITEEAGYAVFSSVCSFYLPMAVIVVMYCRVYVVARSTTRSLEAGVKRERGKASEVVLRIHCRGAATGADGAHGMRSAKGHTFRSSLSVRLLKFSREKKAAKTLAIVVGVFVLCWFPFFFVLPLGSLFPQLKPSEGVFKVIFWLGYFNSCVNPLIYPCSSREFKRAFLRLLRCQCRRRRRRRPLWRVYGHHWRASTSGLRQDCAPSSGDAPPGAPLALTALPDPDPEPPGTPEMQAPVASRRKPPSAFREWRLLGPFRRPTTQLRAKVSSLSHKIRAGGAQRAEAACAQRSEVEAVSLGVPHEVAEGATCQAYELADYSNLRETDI

[5] = molecular target: D(2) dopamine receptor (Homo sapiens) (UniProt P14416); details: Compound concentration 10.0 uM
Sequence of D(2) dopamine receptor (Homo sapiens) (P14416 whole entry): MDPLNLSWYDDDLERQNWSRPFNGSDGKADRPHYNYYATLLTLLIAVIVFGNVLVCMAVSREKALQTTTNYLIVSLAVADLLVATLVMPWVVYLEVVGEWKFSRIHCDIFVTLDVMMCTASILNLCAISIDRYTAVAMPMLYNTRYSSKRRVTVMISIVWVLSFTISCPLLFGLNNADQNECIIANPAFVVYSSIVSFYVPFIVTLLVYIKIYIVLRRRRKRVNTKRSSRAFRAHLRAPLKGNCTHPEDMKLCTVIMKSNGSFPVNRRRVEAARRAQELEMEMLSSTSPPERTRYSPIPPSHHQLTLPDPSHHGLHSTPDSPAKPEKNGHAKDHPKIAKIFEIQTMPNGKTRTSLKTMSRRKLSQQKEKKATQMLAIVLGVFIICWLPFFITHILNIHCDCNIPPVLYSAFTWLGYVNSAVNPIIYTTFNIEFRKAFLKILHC

[6] = molecular target: Histamine H1 receptor (Homo sapiens) (UniProt P35367); details: Compound concentration 10.0 uM
Sequence of Histamine H1 receptor (Homo sapiens) (P35367 whole entry): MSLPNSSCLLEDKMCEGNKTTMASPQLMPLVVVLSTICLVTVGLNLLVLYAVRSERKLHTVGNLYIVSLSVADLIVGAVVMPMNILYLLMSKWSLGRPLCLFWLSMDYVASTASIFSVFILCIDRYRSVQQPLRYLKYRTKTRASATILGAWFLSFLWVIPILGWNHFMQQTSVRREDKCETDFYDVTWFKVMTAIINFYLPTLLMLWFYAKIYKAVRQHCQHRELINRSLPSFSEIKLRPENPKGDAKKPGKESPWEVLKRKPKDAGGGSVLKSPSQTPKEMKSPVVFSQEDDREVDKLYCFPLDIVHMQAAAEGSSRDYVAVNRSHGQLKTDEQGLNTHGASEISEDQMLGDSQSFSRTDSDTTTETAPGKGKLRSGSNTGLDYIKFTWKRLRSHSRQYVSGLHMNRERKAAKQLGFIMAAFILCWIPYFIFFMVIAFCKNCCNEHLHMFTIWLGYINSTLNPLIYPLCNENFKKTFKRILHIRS

Question: `CC(C)(O)c1cncc(-c2nc3ccc(F)cc3n2C2CC2)c1` [MSD-CYP11B2] was tested. Which inhibition [1] did it give?
Answer: The inhibition was 10%.

Question: What about the IC50 [2] of the same compound?
Answer: Its IC50 is 4.7 µM.

Question: What about the Ki [2] of the same compound?
Answer: Its Ki is 2.15 µM.

Question: And the inhibition [3]?
Answer: The inhibition was 8%.

Question: And the inhibition [4]?
Answer: The inhibition was 2.58%.

Question: What about the inhibition [5] of the same compound?
Answer: Its inhibition is -4%.

Question: And the inhibition [6]?
Answer: Its inhibition is 23%.
